Measurements published in ChEMBL document CHEMBL2439971, “Design, synthesis and antiproliferative evaluation of fluorenone analogs with DNA topoisomerase I inhibitory properties” (Bioorg Med Chem, 2013).
Calls of active or inactive are those of the source. No cut-off for these calls is given here.

Tests used:
[1] = Cytotoxicity against human NCI60 cells; type: functional
PC-3 [2] = experiment: Cytotoxicity against human PC3 cells at 10 uM after 48 hrs by sulforhodamine B assay relative to control; type: functional
SK-MEL-2 = experiment: Cytotoxicity against human SK-MEL-2 cells at 10 uM after 48 hrs by sulforhodamine B assay relative to control; type: functional
M14 = experiment: Cytotoxicity against human M14 cells at 10 uM after 48 hrs by sulforhodamine B assay relative to control; type: functional
DU-145 = experiment: Cytotoxicity against human DU145 cells at 10 uM after 48 hrs by sulforhodamine B assay relative to control; type: functional
OVCAR-5 = experiment: Cytotoxicity against human OVCAR5 cells at 10 uM after 48 hrs by sulforhodamine B assay relative to control; type: functional
SW-620 = experiment: Cytotoxicity against human SW620 cells at 10 uM after 48 hrs by sulforhodamine B assay relative to control; type: functional
ACHN = experiment: Cytotoxicity against human ACHN cells at 10 uM after 48 hrs by sulforhodamine B assay relative to control; type: functional
Homo sapiens = organism: Homo sapiens; experiment: Inhibition of telomerase (unknown origin) at 10 uM TRAP assay
NCI-H522 = experiment: Cytotoxicity against human NCI-H522 cells at 10 uM after 48 hrs by sulforhodamine B assay relative to control; type: functional
PC-3 [3] = experiment: Cytotoxicity against human PC3 cells after 48 hrs by sulforhodamine B assay; type: functional, cell-based; conditions: PC-3, 48 h
NCI-H322M = experiment: Cytotoxicity against human NCI-H322M cells at 10 uM after 48 hrs by sulforhodamine B assay relative to control; type: functional
SF-539 = experiment: Cytotoxicity against human SF539 cells at 10 uM after 48 hrs by sulforhodamine B assay relative to control; type: functional
HOP-92 = experiment: Cytotoxicity against human HOP92 cells at 10 uM after 48 hrs by sulforhodamine B assay relative to control; type: functional
MDA-MB-231 = experiment: Cytotoxicity against human MDA-MB-231 cells at 10 uM after 48 hrs by sulforhodamine B assay relative to control; type: functional
COLO 205 = experiment: Cytotoxicity against human COLO205 cells at 10 uM after 48 hrs by sulforhodamine B assay relative to control; type: functional
NCI-H226 = experiment: Cytotoxicity against human NCI-H226 cells at 10 uM after 48 hrs by sulforhodamine B assay relative to control; type: functional
SF-268 = experiment: Cytotoxicity against human SF268 cells at 10 uM after 48 hrs by sulforhodamine B assay relative to control; type: functional
HL-60(TB) = experiment: Cytotoxicity against human HL-60(TB) cells at 10 uM after 48 hrs by sulforhodamine B assay relative to control; type: functional
UACC-257 = experiment: Cytotoxicity against human UACC257 cells at 10 uM after 48 hrs by sulforhodamine B assay relative to control; type: functional
786-0 = experiment: Cytotoxicity against human 786-0 cells at 10 uM after 48 hrs by sulforhodamine B assay relative to control; type: functional
SK-MEL-28 = experiment: Cytotoxicity against human SK-MEL-28 cells at 10 uM after 48 hrs by sulforhodamine B assay relative to control; type: functional
BT-549 = experiment: Cytotoxicity against human BT549 cells at 10 uM after 48 hrs by sulforhodamine B assay relative to control; type: functional
SN12C = experiment: Cytotoxicity against human SN12C cells at 10 uM after 48 hrs by sulforhodamine B assay relative to control; type: functional
A549 = experiment: Cytotoxicity against human A549 cells at 10 uM after 48 hrs by sulforhodamine B assay relative to control; type: functional
HCC 2998 = experiment: Cytotoxicity against human HCC2998 cells at 10 uM after 48 hrs by sulforhodamine B assay relative to control; type: functional
[4] = Cytotoxicity against human Hs 578T cells at 10 uM after 48 hrs by sulforhodamine B assay relative to control; type: functional
MDA-MB-468 = experiment: Cytotoxicity against human MDA-MB-468 cells at 10 uM after 48 hrs by sulforhodamine B assay relative to control; type: functional
HCT-15 = experiment: Cytotoxicity against human HCT15 cells at 10 uM after 48 hrs by sulforhodamine B assay relative to control; type: functional
SNB-19 = experiment: Cytotoxicity against human SNB19 cells at 10 uM after 48 hrs by sulforhodamine B assay relative to control; type: functional
NCI-H23 = experiment: Cytotoxicity against human NCI-H23 cells at 10 uM after 48 hrs by sulforhodamine B assay relative to control; type: functional
NCI/ADR-RES = experiment: Cytotoxicity against human NCI/ADR-RES cells at 10 uM after 48 hrs by sulforhodamine B assay relative to control; type: functional
UACC-62 = experiment: Cytotoxicity against human UACC62 cells at 10 uM after 48 hrs by sulforhodamine B assay relative to control; type: functional
OVCAR-3 = experiment: Cytotoxicity against human OVCAR3 cells at 10 uM after 48 hrs by sulforhodamine B assay relative to control; type: functional
RXF 393 = experiment: Cytotoxicity against human RXF393 cells at 10 uM after 48 hrs by sulforhodamine B assay relative to control; type: functional
T47D = experiment: Cytotoxicity against human T47D cells at 10 uM after 48 hrs by sulforhodamine B assay relative to control; type: functional
MDA-MB-435 = experiment: Cytotoxicity against human MDA-MB-435 cells at 10 uM after 48 hrs by sulforhodamine B assay relative to control; type: functional
MCF7 = experiment: Cytotoxicity against human MCF7 cells at 10 uM after 48 hrs by sulforhodamine B assay relative to control; type: functional
CCRF-CEM = experiment: Cytotoxicity against human CCRF-CEM cells at 10 uM after 48 hrs by sulforhodamine B assay relative to control; type: functional
NCI-H460 = experiment: Cytotoxicity against human NCI-H460 cells at 10 uM after 48 hrs by sulforhodamine B assay relative to control; type: functional
SNB-75 = experiment: Cytotoxicity against human SNB75 cells at 10 uM after 48 hrs by sulforhodamine B assay relative to control; type: functional
K562 = experiment: Cytotoxicity against human K562 cells at 10 uM after 48 hrs by sulforhodamine B assay relative to control; type: functional
HCT-116 = experiment: Cytotoxicity against human HCT116 cells at 10 uM after 48 hrs by sulforhodamine B assay relative to control; type: functional
HT-29 = experiment: Cytotoxicity against human HT-29 cells at 10 uM after 48 hrs by sulforhodamine B assay relative to control; type: functional
MOLT-4 = experiment: Cytotoxicity against human MOLT4 cells at 10 uM after 48 hrs by sulforhodamine B assay relative to control; type: functional
HOP-62 = experiment: Cytotoxicity against human HOP62 cells at 10 uM after 48 hrs by sulforhodamine B assay relative to control; type: functional
SK-OV-3 = experiment: Cytotoxicity against human SKOV3 cells at 10 uM after 48 hrs by sulforhodamine B assay relative to control; type: functional
KM12 = experiment: Cytotoxicity against human KM12 cells at 10 uM after 48 hrs by sulforhodamine B assay relative to control; type: functional
RPMI-8226 = experiment: Cytotoxicity against human RPMI8226 cells at 10 uM after 48 hrs by sulforhodamine B assay relative to control; type: functional
CAKI-1 = experiment: Cytotoxicity against human CAKI-1 cells at 10 uM after 48 hrs by sulforhodamine B assay relative to control; type: functional
OVCAR-8 = experiment: Cytotoxicity against human OVCAR8 cells at 10 uM after 48 hrs by sulforhodamine B assay relative to control; type: functional
IGROV-1 = experiment: Cytotoxicity against human IGROV1 cells at 10 uM after 48 hrs by sulforhodamine B assay relative to control; type: functional
U-251 = experiment: Cytotoxicity against human U251 cells at 10 uM after 48 hrs by sulforhodamine B assay relative to control; type: functional
LOX IMVI = experiment: Cytotoxicity against human LOXIMVI cells at 10 uM after 48 hrs by sulforhodamine B assay relative to control; type: functional
Malme-3M = experiment: Cytotoxicity against human MALME-3M cells at 10 uM after 48 hrs by sulforhodamine B assay relative to control; type: functional
UO-31 = experiment: Cytotoxicity against human UO31 cells at 10 uM after 48 hrs by sulforhodamine B assay relative to control; type: functional
A498 = experiment: Cytotoxicity against human A498 cells at 10 uM after 48 hrs by sulforhodamine B assay relative to control; type: functional
SF-295 = experiment: Cytotoxicity against human SF295 cells at 10 uM after 48 hrs by sulforhodamine B assay relative to control; type: functional
SK-MEL-5 = experiment: Cytotoxicity against human SK-MEL-5 cells at 10 uM after 48 hrs by sulforhodamine B assay relative to control; type: functional
[5] = molecular target: DNA topoisomerase 1 (Homo sapiens) (UniProt P11387); experiment: Inhibition of recombinant human DNA topoisomerase 1-mediated relaxation of supercoiled pHOT DNA at 25 to 50 uM after 45 mins by agarose gel electrophoresis
Chain of DNA topoisomerase 1 (Homo sapiens) (P11387 whole entry): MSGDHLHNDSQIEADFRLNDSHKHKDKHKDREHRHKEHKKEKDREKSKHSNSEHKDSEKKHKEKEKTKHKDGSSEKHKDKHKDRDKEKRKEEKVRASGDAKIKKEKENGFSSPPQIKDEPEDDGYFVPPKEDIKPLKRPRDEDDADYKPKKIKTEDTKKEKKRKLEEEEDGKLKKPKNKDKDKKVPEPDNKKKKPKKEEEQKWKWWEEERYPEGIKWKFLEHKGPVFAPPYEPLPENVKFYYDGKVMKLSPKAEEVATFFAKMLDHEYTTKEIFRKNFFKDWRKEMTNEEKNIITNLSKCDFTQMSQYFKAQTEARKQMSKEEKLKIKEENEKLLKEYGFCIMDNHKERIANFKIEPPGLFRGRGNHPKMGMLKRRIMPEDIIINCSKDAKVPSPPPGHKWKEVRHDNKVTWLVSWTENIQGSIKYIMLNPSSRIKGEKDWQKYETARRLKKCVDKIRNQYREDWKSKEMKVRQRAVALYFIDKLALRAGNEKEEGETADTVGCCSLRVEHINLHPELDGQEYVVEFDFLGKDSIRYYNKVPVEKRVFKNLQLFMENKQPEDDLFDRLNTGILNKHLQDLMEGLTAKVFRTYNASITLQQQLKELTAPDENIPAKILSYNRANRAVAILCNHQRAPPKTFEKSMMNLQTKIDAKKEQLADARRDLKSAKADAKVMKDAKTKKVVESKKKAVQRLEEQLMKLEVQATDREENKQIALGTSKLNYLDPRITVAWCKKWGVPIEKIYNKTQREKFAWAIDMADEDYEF

`CCN(CC)CCC(=O)Nc1ccc2c(c1)C(=O)c1cc(NC(=O)CCN(CC)CC)ccc1C2=O` gave a GI50 [1] of 2570 nM.

Molecule `CCSCCC(=O)Nc1ccc2c(c1)C(=O)c1cc(NC(=O)CCSCC)ccc1-2` has an Activity (PC-3 [2]) of 100%, an Activity (SK-MEL-2) of 117.38% and an Activity (M14) of 101.8%. The Activity (DU-145) was 112.53%, the Activity (OVCAR-5) was 109.71% and the Activity (SW-620) was 116.5%. For the same molecule, the Activity (ACHN) was 112.08%, the inhibition (Homo sapiens) was “inactive” and the Activity (NCI-H522) was 90.06%. The IC50 (PC-3 [3]) was over 30000 nM, the Activity (NCI-H322M) was 117.16% and the Activity (SF-539) was 86.16%. The Activity (HOP-92) was 103.43%, the Activity (MDA-MB-231) was 118.39% and the Activity (COLO 205) was 118.9%. For the same molecule, the Activity (NCI-H226) was 104.85%, the Activity (SF-268) was 122.03% and the Activity (HL-60(TB)) was 109.4%. The Activity (UACC-257) was 113.41%, the Activity (786-0) was 96.11% and the Activity (SK-MEL-28) was 103.35%. The Activity (BT-549) was 97.04%, the Activity (SN12C) was 102.91% and the Activity (A549) was 106.07%. For the same molecule, the Activity (HCC 2998) was 107.5%, the Activity [4] was 109.39% and the Activity (MDA-MB-468) was 109.99%. It also gave an Activity (HCT-15) of 104.94%, an Activity (SNB-19) of 106.91% and an Activity (NCI-H23) of 100.62%. It also gave an Activity (NCI/ADR-RES) of 103.59%, an Activity (UACC-62) of 107.97% and an Activity (OVCAR-3) of 123.89%. The Activity (RXF 393) was 105.75%, the Activity (T47D) was 103.44% and the Activity (MDA-MB-435) was 112.56%. For the same molecule, the Activity (MCF7) was 94.51%, the Activity (CCRF-CEM) was 96.61% and the Activity (NCI-H460) was 108.3%. For the same molecule, the Activity (SNB-75) was 92.1%, the Activity (K562) was 102.87% and the Activity (HCT-116) was 100.1%. The Activity (HT-29) was 92.74%, the Activity (MOLT-4) was 102.08% and the Activity (HOP-62) was 119.93%. The Activity (SK-OV-3) was 110.74%, the Activity (KM12) was 117.91% and the Activity (RPMI-8226) was 103.94%. The Activity (CAKI-1) was 108.37%, the Activity (OVCAR-8) was 94.28% and the Activity (IGROV-1) was 122.92%. For the same molecule, the Activity (U-251) was 102.62%, the Activity (LOX IMVI) was 69.5% and the Activity (Malme-3M) was 125.15%. For the same molecule, the Activity (UO-31) was 92.9%, the Activity (A498) was 124.53% and the Activity (SF-295) was 85.58%. The Activity (SK-MEL-5) was 108.49%.

With `CN(C)CC(=O)Nc1ccc2c(c1)C(=O)c1cc(NC(=O)CN(C)C)ccc1C2=O` the GI50 [1] was 2090 nM and the inhibition [5] was “Active”.
